Test results: patent US20140155406A1, “4-IMIDAZOPYRIDAZIN-1-YL-BENZAMIDES AND 4-IMIDAZOTRIAZIN-1-YL-BENZAMIDES BTK INHIBITORS” (priority 2011, published 2014)

Columns and labels:
Type in all cases: biochemical
Src enzyme = biological target: T1, Src enzyme (Homo sapiens, UniProt P12931); assay: Src enzyme activity, IMAP fluorescence polarization assay; conditions: 60 min pre-incubation, 4 μM ATP (Km)
T1 construct: purchased Millipore 14-326
Protocol: Src enzyme activity is measured using the IMAP (immobilized metal ion affinity-based fluorescence polarization) assay as outlined below.
Src enzyme (Millipore catalog#14-326), is diluted to 0.8 U/mL in KR buffer (10 mM Tris-HCl, 10 mM MgCl2, 0.01% Tween-20, 0.05% NaN3, 1 mM DTT, 2 mM MnCl2, pH 7.2).
Serial dilution log 10 from 2 mM to 63.2 nM of test compounds are made in 100% DMSO. The dilutions in DMSO are then diluted 50-fold in KR-buffer of which 5 μl is used in the assay, leading to a final compound concentration range in the assay from 10 μM to 0.316 nM. 5 μL/well of test compound in KR buffer (final DMSO concentration in the assay is 1%) is mixed with 5 μl/well of 0.8 U/mL Src enzyme (final concentration in the assay is 0.2 U/mL). Test compounds and Src enzyme are pre-incubated 60 minutes at room temperature, before adding 5 μL/well of 400 nM Fluorescin labeled substrate peptide (p34cdc2 substrate peptide, e.g. #R7157/#R7172, Molecular Devices) in KR-buffer. Final peptide substrate concentration in assay is 100 nM. The kinase assay is started by adding 5 μL/well of 16 μM ATP in KR-buffer (final ATP concentration is 4 μM ATP, Km ATP in Src IMAP assay). Following incubation for 2 h at room temperature the enzyme reaction is stopped by adding 40 μL/well IMAP Progressive Binding Solution (according to suppliers (Molecular Devices) protocol using 75% 1× buffer A and 25% 1× buffer B with 1:600 Progressive Binding Solution). After 60 min incubation at room temperature in the dark the FP signal is read. Fluorescence at 535 nm is measured using parallel and perpendicular filters to determine differences in rotation due to binding of the phosphorylated substrate peptide to the beads. Values are calculated as percentage of the difference in readout (ΔmPi) of the controls with and without ATP. EC50 values are determined by curve fitting of the experimental results using Activity Base.

Lck enzyme = biological target: T2, Lck enzyme (Homo sapiens, UniProt P06239); assay: Lck enzyme activity, IMAP fluorescence polarization assay; conditions: 60 min pre-incubation, 6 μM ATP (Km)
T2 construct: purchased Millipore 14-442
Protocol: Lck enzyme activity is measured using the IMAP (immobilized metal ion affinity-based fluorescence polarization) assay as outlined below.
Lck enzyme (Millipore catalog#14-442), is diluted to 0.4 U/mL in KR buffer (10 mM Tris-HCl, 10 mM MgCl2, 0.01% Tween-20, 0.05% NaN3, 1 mM DTT, 2 mM MnCl2, pH 7.2). Serial dilution log 10 from 2 mM to 63.2 nM of test compounds are made in 100% DMSO. The dilutions in DMSO are then diluted 50-fold in KR-buffer of which 5 μl is used in the assay, leading to a final compound concentration range in the assay from 10 μM to 0.316 nM. 5 μL/well of test compound in KR buffer (final DMSO concentration in the assay is 1%) is mixed with 5 μl/well of 0.4 U/mL Lck enzyme (final concentration in the assay is 0.1 U/mL). Test compounds and Lck enzyme are pre-incubated 60 minutes at room temperature, before adding 5 μL/well of 400 nM Fluorescin labeled substrate peptide (p34cdc2 substrate peptide, e.g. #R7157/#R7172, Molecular Devices) in KR-buffer. Final peptide substrate concentration in assay is 100 nM. The kinase assay is started by adding 5 μL/well of 24 μM ATP in KR-buffer (final ATP concentration is 6 μM ATP, Km ATP in Lck IMAP assay). Following incubation for 2 h at room temperature the enzyme reaction is stopped by adding 40 μL/well IMAP Progressive Binding Solution (according to suppliers (Molecular Devices) protocol using 75% 1× buffer A and 25% 1× buffer B with 1:600 Progressive Binding Solution). After 60 min incubation at room temperature in the dark the FP signal is read. Fluorescence at 535 nm is measured using parallel and perpendicular filters to determine differences in rotation due to binding of the phosphorylated substrate peptide to the beads. Values are calculated as percentage of the difference in readout (ΔmPi) of the controls with and without ATP. EC50 values are determined by curve fitting of the experimental results using Activity Base.

Lyn enzyme = biological target: T3, Lyn enzyme (Homo sapiens, UniProt P07948); assay: Lyn enzyme activity, IMAP fluorescence polarization assay; conditions: 60 min pre-incubation, 2 μM ATP (Km)
T3 construct: purchased Millipore 14-510
Protocol: Lyn enzyme activity is measured using the IMAP (immobilized metal ion affinity-based fluorescence polarization) assay as outlined below.
Lyn enzyme (Millipore catalog#14-510), is diluted to 250 mU/mL in KR buffer (10 mM Tris-HCl, 10 mM MgCl2, 0.01% Tween-20, 0.05% NaN3, 1 mM DTT, 2 mM MnCl2, pH 7.2). Serial dilution log 10 from 2 mM to 63.2 nM of test compounds are made in 100% DMSO. The dilutions in DMSO are then diluted 50-fold in KR-buffer of which 5 μl is used in the assay, leading to a final compound concentration range in the assay from 10 μM to 0.316 nM. 5 μL/well of test compound in KR buffer (final DMSO concentration in the assay is 1%) is mixed with 5 μl/well of 250 mU/mL Lyn enzyme (final concentration in the assay is 62.5 mU/mL). Test compounds and Lyn enzyme are pre-incubated 60 minutes at room temperature, before adding 5 μL/well of 400 nM Fluorescin labeled substrate peptide (Blk/Lyntide substrate, e.g. #R7188/#R7233, Molecular Devices) in KR-buffer. Final peptide substrate concentration in assay is 100 nM. The kinase assay is started by adding 5 μL/well of 8 μM ATP in KR-buffer (final ATP concentration is 2 μM ATP, Km ATP in Lyn IMAP assay). Following incubation for 2 h at room temperature the enzyme reaction is stopped by adding 40 μL/well IMAP Progressive Binding Solution (according to suppliers (Molecular Devices) protocol using 75% 1× buffer A and 25% 1× buffer B with 1:600 Progressive Binding Solution). After 60 min incubation at room temperature in the dark the FP signal is read. Fluorescence at 535 nm is measured using parallel and perpendicular filters to determine differences in rotation due to binding of the phosphorylated substrate peptide to the beads. Values are calculated as percentage of the difference in readout (ΔmPi) of the controls with and without ATP. EC50 values are determined by curve fitting of the experimental results using Activity Base.

Measured: EC50

T2 sequence (P06239 whole entry): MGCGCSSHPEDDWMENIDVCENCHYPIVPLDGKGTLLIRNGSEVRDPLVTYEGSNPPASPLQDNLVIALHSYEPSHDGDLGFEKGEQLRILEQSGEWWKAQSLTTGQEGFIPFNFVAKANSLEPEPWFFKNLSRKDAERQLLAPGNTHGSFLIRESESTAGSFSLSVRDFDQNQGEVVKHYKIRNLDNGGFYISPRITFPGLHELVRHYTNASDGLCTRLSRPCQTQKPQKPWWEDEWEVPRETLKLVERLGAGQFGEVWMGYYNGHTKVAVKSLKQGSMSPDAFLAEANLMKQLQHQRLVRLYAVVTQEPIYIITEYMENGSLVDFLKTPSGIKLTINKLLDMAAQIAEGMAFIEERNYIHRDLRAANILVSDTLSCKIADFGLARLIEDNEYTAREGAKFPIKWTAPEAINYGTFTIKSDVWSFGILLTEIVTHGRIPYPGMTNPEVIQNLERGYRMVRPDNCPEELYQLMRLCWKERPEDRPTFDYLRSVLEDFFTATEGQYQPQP
T3 sequence (P07948 whole entry): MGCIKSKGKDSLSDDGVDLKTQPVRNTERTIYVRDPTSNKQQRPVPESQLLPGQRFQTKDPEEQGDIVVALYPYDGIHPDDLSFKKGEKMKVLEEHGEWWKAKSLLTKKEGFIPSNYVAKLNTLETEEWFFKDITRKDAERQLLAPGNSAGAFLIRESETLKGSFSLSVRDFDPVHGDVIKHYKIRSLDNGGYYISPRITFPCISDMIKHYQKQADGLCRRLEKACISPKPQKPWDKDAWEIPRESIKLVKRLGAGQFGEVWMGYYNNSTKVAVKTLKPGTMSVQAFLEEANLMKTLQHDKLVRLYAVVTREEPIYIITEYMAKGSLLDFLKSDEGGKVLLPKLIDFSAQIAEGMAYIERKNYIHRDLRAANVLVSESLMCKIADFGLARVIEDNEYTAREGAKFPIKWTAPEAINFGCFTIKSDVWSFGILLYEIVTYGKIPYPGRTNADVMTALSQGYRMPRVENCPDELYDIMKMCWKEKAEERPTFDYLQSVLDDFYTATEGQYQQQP
T1 sequence (P12931 whole entry): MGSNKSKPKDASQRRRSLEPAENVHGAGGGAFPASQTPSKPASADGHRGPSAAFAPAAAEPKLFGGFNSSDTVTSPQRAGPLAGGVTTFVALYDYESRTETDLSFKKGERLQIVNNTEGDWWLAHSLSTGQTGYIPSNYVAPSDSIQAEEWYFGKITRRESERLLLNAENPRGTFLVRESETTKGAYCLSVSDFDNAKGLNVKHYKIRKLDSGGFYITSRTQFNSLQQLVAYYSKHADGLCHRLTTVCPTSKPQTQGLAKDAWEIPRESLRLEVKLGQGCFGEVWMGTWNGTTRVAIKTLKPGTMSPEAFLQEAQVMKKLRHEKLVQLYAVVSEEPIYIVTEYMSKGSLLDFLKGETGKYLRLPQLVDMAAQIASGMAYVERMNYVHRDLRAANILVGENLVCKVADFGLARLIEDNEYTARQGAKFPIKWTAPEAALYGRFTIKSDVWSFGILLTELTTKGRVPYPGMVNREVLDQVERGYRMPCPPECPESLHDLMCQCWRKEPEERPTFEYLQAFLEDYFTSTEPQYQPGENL

CCCc1ccnc(NC(=O)c2ccc(-c3nc([C@H](C)NC(=O)/C=C/COC)n4ccnc(C)c34)cc2)c1 [Example 36, (S,E)-4-(3-(1-(4-methoxybut-2-enamido)ethyl)-8-methylimidazo[1,5-a]pyrazin-1-yl)-N-(4-propylpyridin-2-yl)benzamide]
≥ 1 µM: all assays above

Cc1nccn2c([C@@H]3CCCN3C(=O)/C=C/CN3CCCC3)nc(-c3ccc(C(=O)Nc4ccccn4)cc3)c12 [Example 25, (S,E)-4-(8-methyl-3-(1-(4-(pyrrolidin-1-yl)but-2-enoyl)pyrrolidin-2-yl)imidazo[1,5-a]pyrazin-1-yl)-N-(pyridin-2-yl)benzamide]
≥ 1 µM: all assays above

CCCc1ccnc(NC(=O)c2ccc(-c3nc([C@H](C)N(C)C(=O)/C=C/CN(C)C)n4ccnc(C)c34)cc2)c1 [Example 18, (S,E)-4-(3-(1-(4-(dimethylamino)-N-methylbut-2-enamido)ethyl)-8-methylimidazo[1,5-a]pyrazin-1-yl)-N-(4-propylpyridin-2-yl)benzamide]
≥ 1 µM: all assays above

CCCc1ccnc(NC(=O)c2ccc(-c3nc([C@H](C)NC(=O)/C=C/CN(C)C)n4ccnc(C)c34)cc2)c1 [Example 28, (S,E)-4-(3-(1-(4-(dimethylamino)but-2-enamido)ethyl)-8-methylimidazo[1,5-a]pyrazin-1-yl)-N-(4-propylpyridin-2-yl)benzamide]
≥ 1 µM: all assays above

Cc1nccn2c([C@@H]3CCCCN3C(=O)/C=C/CN3CCCC3)nc(-c3ccc(C(=O)Nc4cc(C(F)(F)F)ccn4)cc3)c12 [Example 21, (S,E)-4-(8-methyl-3-(1-(4-(pyrrolidin-1-yl)but-2-enoyl)piperidin-2-yl)imidazo[1,5-a]pyrazin-1-yl)-N-(4-(trifluoromethyl)pyridin-2-yl)benzamide]
≥ 1 µM: all assays above

C=CC(=O)N1CCC[C@H]1c1nc(-c2ccc(C(=O)Nc3cc(C#N)ccn3)cc2)c2c(C)nccn12 [Example 13, (S)-4-(3-(1-Acryloylpyrrolidin-2-yl)-8-methylimidazo[1,5-a]pyrazin-1-yl)-N-(4-cyanopyridin-2-yl)benzamide]
≥ 1 µM: all assays above

C=CC(=O)N[C@@H](C)c1nc(-c2ccc(C(=O)Nc3cc(CCC)ccn3)cc2)c2c(C)nccn12 [Example 23, (S)-4-(3-(1-acrylamidoethyl)-8-methylimidazo[1,5-a]pyrazin-1-yl)-N-(4-propylpyridin-2-yl)benzamide]
≥ 1 µM: all assays above

C=CC(=O)N1CCC[C@H]1c1nc(-c2ccc(C(=O)Nc3cc(C(F)(F)F)ccn3)cc2)c2c(C)nccn12 [Example 10, (S)-4-(3-(1-Acryloylpyrrolidin-2-yl)-8-methylimidazo[1,5-a]pyrazin-1-yl)-N-(4-(trifluoromethyl)pyridin-2-yl)benzamide]
≥ 1 µM: all assays above

CC#CC(=O)N[C@@H](C)c1nc(-c2ccc(C(=O)Nc3cc(CCC)ccn3)cc2)c2c(C)nccn12 [Example 38, (S)-4-(3-(1-but-2-ynamidoethyl)-8-methylimidazo[1,5-a]pyrazin-1-yl)-N-(4-propylpyridin-2-yl)benzamide]
≥ 1 µM: all assays above

C=CS(=O)(=O)N1CCCC[C@H]1c1nc(-c2ccc(C(=O)Nc3cc(CCC)ccn3)cc2)c2c(C)nccn12 [Example 4, (S)-4-(8-Methyl-3-(1-(vinylsulfonyl)piperidin-2-yl)imidazo[1,5-a]pyrazin-1-yl)-N-(4-propylpyridin-2-yl)benzamide]
≥ 1 µM: all assays above

C=CC(=O)N[C@@H](C)c1nc(-c2ccc(C(=O)Nc3cc(C(F)(F)F)ccn3)cc2)c2c(C)nccn12 [Example 8, (S)-4-(3-(1-Acrylamidoethyl)-8-methylimidazo[1,5-a]pyrazin-1-yl)-N-(4-(trifluoromethyl)pyridin-2-yl)benzamide]
≥ 1 µM: all assays above

CC#CC(=O)N[C@@H](C)c1nc(-c2ccc(C(=O)Nc3cc(C(F)(F)F)ccn3)cc2)c2c(C)nccn12 [Example 7, (S)-4-(3-(1-But-2-ynamidoethyl)-8-methylimidazo[1,5-a]pyrazin-1-yl)-N-(4-(trifluoromethyl)pyridin-2-yl)benzamide]
≥ 1 µM: all assays above

CC#CC(=O)N1CCC[C@H]1c1nc(-c2ccc(C(=O)Nc3cc(C)ccn3)cc2)c2c(C)nccn12 [Example 15, (S)-4-(3-(1-but-2-ynoylpyrrolidin-2-yl)-8-methylimidazo[1,5-a]pyrazin-1-yl)-N-(4-methylpyridin-2-yl)benzamide]
≥ 1 µM: all assays above

Cc1nccn2c([C@@H]3CCCCN3C(=O)/C=C/CN(C)C)nc(-c3ccc(C(=O)Nc4cc(C(F)(F)F)ccn4)cc3)c12 [Example 37, (S,E)-4-(3-(1-(4-(dimethylamino)but-2-enoyl)piperidin-2-yl)-8-methylimidazo[1,5-a]pyrazin-1-yl)-N-(4-(trifluoromethyl)pyridin-2-yl)benzamide]
≥ 1 µM: all assays above

CCCc1ccnc(NC(=O)c2ccc(-c3nc([C@@H]4CCCCN4C(=O)/C=C/CN(C)C)n4ccnc(C)c34)cc2)c1 [Example 3, (S,E)-4-(3-(1-(4-(Dimethylamino)but-2-enoyl)piperidin-2-yl)-8-methylimidazo[1,5-a]pyrazin-1-yl)-N-(4-propylpyridin-2-yl)benzamide]
≥ 1 µM: all assays above
